Laboratory results taken from patent EP4725957A1, “GROUP OF CYCLIC ALKALINE LIPOPEPTIDE COMPOUNDS, AND PREPARATION METHOD THEREFOR AND USE THEREOF” (Institute of Medicinal Biotechnology, Chinese Academy of …, priority 2023, dated 2024).
≈ marks a conversion by molar mass, not a printed value. Bridge positions count the residues as written; N and C are the ends. Square brackets hold non-standard residues; d marks the D form. Peptide text beside a SMILES is read from it. * marks the point of attachment. Heptanoyl(6-Me) = CC(C)CCCCC(=O)*; dDap = NC[C@@H](N)C(=O)O; Dab = NCC[C@H](N)C(=O)O

Tests used:
[1] = test system: Klebsiella pneumoniae ATCC BAA-1705 (KPC); format: cell-based; details: Klebsiella pneumoniae ATCC BAA-1705 (KPC)
Procedure, shortened: (§1)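 MIC by CLSI broth microdilution; MH broth; final drug 64–0.03 mg/L, 2-fold; inoculum (2-4) × 10^5 CFU/mL from 0.5 McFarland suspension of 18-24 h colonies; 35-37°C, 16-20 h; growth controls included.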

[2] = test system: Escherichia coli ATCC BAA-2523; format: cell-based; details: Escherichia coli ATCC BAA-2523
Procedure, shortened: as §1

[3] = test system: Pseudomonas aeruginosa ATCC 27853; format: cell-based; details: Pseudomonas aeruginosa ATCC27853
Procedure, shortened: as §1

[4] = test system: Acinetobacter baumannii ABA19-1; format: cell-based; details: Acinetobacter baumannii ABA19-1
Procedure, shortened: as §1

[5] = test system: Acinetobacter baumannii NCTC 13304 (OXA-27); format: cell-based; details: Acinetobacter baumannii NCTC 13304 (OXA-27)
Procedure, shortened: as §1

[6] = test system: Pseudomonas aeruginosa PAE19-3; format: cell-based; details: Pseudomonas aeruginosa PAE19-3
Procedure, shortened: as §1

[7] = test system: Escherichia coli ATCC BAA-2340 (KPC); format: cell-based; details: Escherichia coli ATCC BAA-2340 (KPC)
Procedure, shortened: as §1

[8] = test system: Klebsiella pneumoniae KPN+19-15; format: cell-based; details: Klebsiella pneumoniae KPN 19-15
Procedure, shortened: as §1

[9] = Nephrotoxicity assay: in vitro cytotoxicity of HK-2 cells by CCK-8 assay; format: cell-based; details: human, HK-2 cells (human renal), 72 h incubation with drug-containing medium
Procedure, shortened: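 Compounds in sterile water, diluted to final 500, 250, 200, 100, 50, 25 and 12.5 µg/mL, were applied for 72 h to human HK-2 kidney cells. Absorbance at 450 nm after 3 h CCK-8 gave viability against untreated wells, and IC50 came from logarithmic regression; three replicates.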

[10] = Acute toxicity test in healthy mice, single tail vein injection; format: in vivo; details: mouse, in vivo, iv; ICR mice, single tail vein injection, Bliss method
Protocol: (§2) Healthy ICR mice aged 5-6 weeks were selected, with 5-10 mice in each group, and administered via a single tail vein injection at an administration volume of 20 mL/kg. In the preliminary test, the drug dose concentrations that caused 100% mortality and no mortality in mice after a single intravenous injection were determined. Based on this dose range, 4-5 dose groups were set up, with a dose ratio of 1:0.5 to 1:0.8 between adjacent groups. The mortality of animals within 7 days after administration was recorded. According to the mortality rate of experimental animals in each group, the median lethal dose (LD50) of the test samples, i.e., the dose causing 50% mortality of the tested animals, was calculated by the Bliss method.

Healthy ICR mice = assay: as above; format: in vivo; details: within 7 days
Protocol: as §2

[11] = test system: Pseudomonas aeruginosa ATCC27853; assay: In vivo antibacterial (protection) test in infected mice; details: infected ICR mice, 7 days observation
Text: Pseudomonas aeruginosa ATCC27853 was selected for the determination of in vivo antibacterial activity.
One day before infection, the test bacteria were inoculated onto the corresponding nutrient agar plates and cultured overnight. On the day of infection, single colonies grown on the plates were picked and suspended in sterile normal saline, and the suspension was mixed thoroughly to obtain the original bacterial solution. The bacterial solution was then adjusted to the required concentration with 5% dried yeast powder and prepared freshly prior to use.
Healthy ICR mice were randomly divided into groups, with 5 mice per group, half male and half female. Bacterial solutions of different dilutions were aspirated and injected intraperitoneally into mice at a volume of 0.5 mL per 20 g of body weight. The mortality of mice was recorded within 7 days after infection. The minimum bacterial dose causing 100% mortality in mice was defined as the minimum lethal dose (MLD), which was used as the infection dose for the in vivo protection test.
Drug administration was performed via tail vein injection at 2 h, 8 h, 24 h, and 30 h after infection, with a total of 4 administrations, and the administration volume was 20 mL/kg. For the preparation of drug solutions, Compound 7, together with the control drugs polymyxin B and meropenem, were dissolved in normal saline to the required concentrations for tail vein injection, and all solutions were prepared freshly prior to use.
In the preliminary test, the drug dose concentrations that caused 100% mortality and no mortality in mice after infection with the tested bacteria were determined. Based on this dose range, 4-5 dose groups were established, with a dose ratio of 1:0.5 to 1:0.8 between adjacent groups.
Mice were randomly grouped according to body weight, with 8 mice per group (half male and half female). Each mouse was intraperitoneally infected with the test bacterial solution at a volume of 0.5 mL per 20 g of body weight, followed by tail vein injection at 2 h, 8 h, 24 h, and 30 h after infection. Mice in the blank control group were not infected with bacterial solution but were only given an equal volume of vehicle at an administration volume of 20 mL/kg. The mortality of mice was observed and recorded for 7 consecutive days.
The minimum lethal bacterial concentration of Pseudomonas aeruginosa ATCC27853 for intraperitoneal infection in mice was 4.2 × 10^2 CFU/mL, which was used as the infection dose in the formal test.
Mice in the infection control group were intraperitoneally inoculated with Pseudomonas aeruginosa ATCC27853 bacterial solution at the MLD concentration ([…]). Infection symptoms began to appear 3-4 hours after inoculation, and all 8 animals died within 48 hours (8/8), with a mortality rate of 100%.

Compound	MIC [1]	MIC [2]	MIC [3]	MIC [4]	MIC [5]	MIC [6]	MIC [7]	MIC [8]	IC50 at 72 h [9]	LD50 at 168 h [10]	mortality rate (Healthy ICR mice; single tail vein injection 15.36 mg/kg)	mortality rate (Healthy ICR mice; single tail vein injection 19.2 mg/kg)	mortality rate (Healthy ICR mice; single tail vein injection 24 mg/kg)	mortality rate (Healthy ICR mice; single tail vein injection 30 mg/kg)	mortality rate ([11]; 0.7 mg/kg tail vein twice daily for 2 days)	mortality rate ([11]; 1.0 mg/kg tail vein twice daily for 2 days)	mortality rate ([11]; 1.4 mg/kg tail vein twice daily for 2 days)	mortality rate ([11]; 2 mg/kg tail vein twice daily for 2 days)
CC(C)CCCCC(=O)N[C@@H](CCN)C(=O)N[C@H](C(=O)N[C@H](CN)C(=O)N[C@H]1CCNC(=O)[C@H]([C@@H](C)O)NC(=O)[C@H](CCN)NC(=O)[C@H](CCN)NC(=O)[C@H]([C@@H](C)O)NC(=O)[C@@H](Cc2ccccc2)NC(=O)[C@H](CCN)NC1=O)[C@@H](C)O [Compound 2, 6-methylheptanoyl-Dab-Thr-D-Dap-ring(4-10)[Dab-Dab-D-Phe-Thr-Dab-Dab-Thr]] ({Heptanoyl(6-Me)}-[Dab]T[dDap][Dab][Dab][dF]T[Dab][Dab]T; lactam 4-C)	≤0.03 µg/mL	≤0.03 µg/mL	≤0.03 µg/mL	≤0.03 µg/mL	≤0.03 µg/mL	0.125 µg/mL (≈ 0.107 µM)	≤0.03 µg/mL	≤0.03 µg/mL	> 500 µg/mL	22 mg/kg	0%	25%	62.5%	100%				
Polymyxin B [reference compound]	0.125 µg/mL	0.03 µg/mL	0.25 µg/mL	0.25 µg/mL	0.06 µg/mL	0.25 µg/mL	0.03 µg/mL	0.125 µg/mL							100%	100%	87.5%	62.5%
